{"source": "patent US10322125B2", "about": "“TGF-beta enhancing compositions for cartilage repair and methods related thereto” (EMORY UNIVERSITY, priority 2013, dated 2019)", "system": "3TP-Lux luciferase reporter (TGF-β-responsive region of the PAI-1 gene) in C2C12 cells", "experiment": "C2C12 cell-based Dual-Luciferase reporter screening assay for TGF-β activity (3TP-Lux)", "design": "species or system mouse", "details": "FIG. 6", "protocol": "The C2C12 cells, a mouse myoblast cell line, were obtained from the American Type Culture Collection (ATCC, Manassas, 8 VA). Cells were grown in Dulbecco's modified Eagle medium (DMEM, Gibco Life Technologies, Rockville, Md.) with 10% non heat inactivated fetal bovine serum (Atlanta Biologicals, Norcross, Ga.). The C2C12 cells at passages 4 to 7 were subcultured in T-75 cm2 flasks at 37° C. in a humidified atmosphere containing 5% CO2. When the flasks reached 80% confluence, the cells were trypsinized and seeded in triplicate at 50,000 cells/well in a 12-well plate for the Dual-Luciferase reporter assay.\nThe C2C12 cells were seeded at a 50,000 cell/well in 12-well plates on day 1. […]\nFor each well, a total of 1 μg DNA was used for the cotransfection and concentration of pGL4.74 Renilla luciferase vector was 1/15 of 3TP-Lux reporter plasmid. […] On day 5, the luciferase activity was measured using the luciferase assay kit (Promega, Madison, Wis.) according to the manufacturer's instructions on a luminescence reader (VictorTMX Light, PerkinElmer Life and Analytical Sciences, Waltham, Mass.). […]", "data": [{"substance": "TGF-β: Transforming growth factor beta, a secreted protein; cells were treated with TGF-β1 in the reporter assay", "values": [{"measurement": "reporter response at higher TGF-β doses", "setting": "doses ranging from 10 ng/ml to 100 ng/ml of TGF-β, compared with 5 ng/ml dose, DMSO instead of compounds", "value": "did not increase reporter response beyond 5 ng/ml dose"}, {"measurement": "TGF-β dose at which maximum reporter response was reached", "setting": "luciferase reporter assay, DMSO solvent instead of compounds", "value": 5, "unit": "ng/mL"}]}]}
